Test results taken from ChEMBL document CHEMBL3804786, “Novel 1,3-thiazolidin-4-one derivatives as promising anti-Candida agents endowed with anti-oxidant and chelating properties” (Eur J Med Chem, 2016).
≈ marks a conversion by molar mass, not a printed value.

What was measured:
Staphylococcus warneri = assay: Antibacterial activity against Staphylococcus warneri clinical isolate after 18 to 22 hrs by broth microdilution method; type: functional
Proteus mirabilis = assay: Antibacterial activity against Proteus mirabilis clinical isolate after 18 to 22 hrs by broth microdilution method; type: functional
Escherichia coli = assay: Antibacterial activity against Escherichia coli after clinical isolate 18 to 22 hrs by broth microdilution method; type: functional
Pichia kudriavzevii = assay: Antifungal activity against Candida krusei clinical isolate after 24 hrs by broth microdilution method; type: functional
Candida tropicalis = assay: Antifungal activity against Candida tropicalis clinical isolate after 24 hrs by broth microdilution method; type: functional
Candida parapsilosis = assay: Antifungal activity against Candida parapsilosis clinical isolate after 24 hrs by broth microdilution method; type: functional; conditions: Lodderomyces parapsilosis
Enterococcus faecalis = assay: Antibacterial activity against Streptococcus faecalis clinical isolate after 18 to 22 hrs by broth microdilution method; type: functional
[1] = test system: Streptococcus sp. (viridans group); assay: Antibacterial activity against Streptococcus alpha-hemolyticus clinical isolate after 18 to 22 hrs by broth microdilution method
Enterobacter sp. = assay: Antibacterial activity against Enterobacter spp. clinical isolate after 18 to 22 hrs by broth microdilution method; type: functional
Staphylococcus aureus = assay: Antibacterial activity against Staphylococcus aureus clinical isolate after 18 to 22 hrs by broth microdilution method; type: functional
Candida albicans = assay: Antifungal activity against Candida albicans clinical isolate after 24 hrs by broth microdilution method; type: functional
Nakaseomyces glabratus = assay: Antifungal activity against Candida glabrata clinical isolate after 24 hrs by broth microdilution method; type: functional
Klebsiella oxytoca = assay: Antibacterial activity against Klebsiella oxytoca clinical isolate after 18 to 22 hrs by broth microdilution method; type: functional
[Candida] sake = Antifungal activity against Candida sake clinical isolate after 24 hrs by broth microdilution method; type: functional; conditions: Fermentozyma sake

Row | Structure (SMILES) | MIC (Staphylococcus warneri) [µg/mL] | MIC (Proteus mirabilis) [µg/mL] | MIC (Escherichia coli) [µg/mL] | MIC (Pichia kudriavzevii) [µg/mL] | MIC (Candida tropicalis) [µg/mL] | MIC (Candida parapsilosis) [µg/mL] | MIC (Enterococcus faecalis) [µg/mL] | MIC [1] [µg/mL] | MIC (Enterobacter sp.) [µg/mL] | MIC (Staphylococcus aureus) [µg/mL] | MIC (Candida albicans) [µg/mL] | MIC (Nakaseomyces glabratus) [µg/mL] | MIC (Klebsiella oxytoca) [µg/mL] | MIC ([Candida] sake) [µg/mL]
1 | CC(C)=N/N=C1\SCC(=O)N1Cc1cccc(Cl)c1 | > 256 | > 256 | > 256 | 2 (≈ 6.76 µM) | 2 (≈ 6.76 µM) | 4 (≈ 13.5 µM) | > 256 | > 256 | > 256 | > 256 | 8 (≈ 27 µM) | 4 (≈ 13.5 µM) | > 256 | 4 (≈ 13.5 µM)
2 | O=C1CS/C(=N\N=C2CCCC2)N1Cc1ccccc1Cl | > 256 | > 256 | > 256 | 8 (≈ 24.9 µM) | 4 (≈ 12.4 µM) | 8 (≈ 24.9 µM) | > 256 | > 256 | > 256 | > 256 | 2 (≈ 6.21 µM) | 4 (≈ 12.4 µM) | > 256 | 2 (≈ 6.21 µM)
3 | O=C1CS/C(=N\N=C2CCCC2)N1Cc1cccc(Cl)c1 | > 256 | > 256 | > 256 | 16 (≈ 49.7 µM) | 8 (≈ 24.9 µM) | 4 (≈ 12.4 µM) | > 256 | > 256 | > 256 | > 256 | 4 (≈ 12.4 µM) | 4 (≈ 12.4 µM) | > 256 | 2 (≈ 6.21 µM)
4 | C/C(=N\N=C1/SCC(=O)N1Cc1cccc([N+](=O)[O-])c1)c1cccs1 | > 256 | > 256 | > 256 | 2 (≈ 5.34 µM) | 4 (≈ 10.7 µM) | 8 (≈ 21.4 µM) | > 256 | > 256 | > 256 | > 256 | 4 (≈ 10.7 µM) | 2 (≈ 5.34 µM) | > 256 | 4 (≈ 10.7 µM)
5 | C/C(=N/N=C1\SCC(=O)N1Cc1ccccc1[N+](=O)[O-])c1ccccn1 | > 256 | > 256 | > 256 | 4 (≈ 10.8 µM) | 4 (≈ 10.8 µM) | 16 (≈ 43.3 µM) | > 256 | > 256 | > 256 | > 256 | 2 (≈ 5.41 µM) | 2 (≈ 5.41 µM) | > 256 | 2 (≈ 5.41 µM)
6 | C/C(=N\N=C1/SCC(=O)N1Cc1ccccc1Cl)c1ccccn1 | > 256 | > 256 | > 256 | 4 (≈ 11.1 µM) | 2 (≈ 5.57 µM) | 8 (≈ 22.3 µM) | > 256 | > 256 | > 256 | > 256 | 4 (≈ 11.1 µM) | 4 (≈ 11.1 µM) | > 256 | 4 (≈ 11.1 µM)
7 | O=C1CS/C(=N\N=C2CCCC2)N1Cc1ccccc1[N+](=O)[O-] | > 256 | > 256 | > 256 | 4 (≈ 12 µM) | 8 (≈ 24.1 µM) | 16 (≈ 48.1 µM) | > 256 | > 256 | > 256 | > 256 | 4 (≈ 12 µM) | 2 (≈ 6.02 µM) | > 256 | 4 (≈ 12 µM)
8 | C[C@@H]1[C@H](O)[C@@H](C)/C=C/C=C/C=C/C=C/C=C/C=C/C=C/[C@H](O[C@@H]2O[C@H](C)[C@@H](O)[C@H](N)[C@@H]2O)C[C@@H]2O[C@](O)(C[C@@H](O)C[C@@H](O)[C@H](O)CC[C@@H](O)C[C@@H](O)CC(=O)O[C@H]1C)C[C@H](O)[C@H]2C(=O)O [AMPHOTERICIN B] | – | – | – | 4 (≈ 4.33 µM) | 2 (≈ 2.16 µM) | 2 (≈ 2.16 µM) | – | – | – | – | 4 (≈ 4.33 µM) | 4 (≈ 4.33 µM) | – | 2 (≈ 2.16 µM)
9 | CC(C)(O/N=C(\C(=O)N[C@@H]1C(=O)N2C(C(=O)[O-])=C(C[n+]3ccccc3)CS[C@H]12)c1csc(N)n1)C(=O)O [CEFTAZIDIME] | 4 (≈ 7.32 µM) | 8 (≈ 14.6 µM) | 4 (≈ 7.32 µM) | – | – | – | 4 (≈ 7.32 µM) | 4 (≈ 7.32 µM) | 8 (≈ 14.6 µM) | 2 (≈ 3.66 µM) | – | – | 8 (≈ 14.6 µM) | –
10 | OC(Cn1cncn1)(Cn1cncn1)c1ccc(F)cc1F [FLUCONAZOLE] | – | – | – | 2 (≈ 6.53 µM) | 2 (≈ 6.53 µM) | 2 (≈ 6.53 µM) | – | – | – | – | 2 (≈ 6.53 µM) | 2 (≈ 6.53 µM) | – | 2 (≈ 6.53 µM)
11 | CC(=O)N1CCN(c2ccc(OCC3COC(Cn4ccnc4)(c4ccc(Cl)cc4Cl)O3)cc2)CC1 (stereo unspecified) [KETOCONAZOLE] | – | – | – | 4 (≈ 7.53 µM) | 2 (≈ 3.76 µM) | 2 (≈ 3.76 µM) | – | – | – | – | 2 (≈ 3.76 µM) | 2 (≈ 3.76 µM) | – | 4 (≈ 7.53 µM)
12 | Clc1ccc(COC(Cn2ccnc2)c2ccc(Cl)cc2Cl)c(Cl)c1 (stereo unspecified) [MICONAZOLE] | – | – | – | 4 (≈ 9.61 µM) | 2 (≈ 4.81 µM) | 4 (≈ 9.61 µM) | – | – | – | – | 2 (≈ 4.81 µM) | 4 (≈ 9.61 µM) | – | 2 (≈ 4.81 µM)
13 | Clc1ccc(C(Cn2ccnc2)OCc2ccsc2Cl)c(Cl)c1 (stereo unspecified) [TIOCONAZOLE] | – | – | – | 8 (≈ 20.6 µM) | 8 (≈ 20.6 µM) | 8 (≈ 20.6 µM) | – | – | – | – | 8 (≈ 20.6 µM) | 4 (≈ 10.3 µM) | – | 4 (≈ 10.3 µM)
